Values joined by “and” are separate entries in the source; they are usually repeats but may differ in a detail not shown here. Equal entries are not always repeated.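 96-well plates; 48 h exposure; 5 concentrations. Endpoints by linear interpolation between flanking doses. Not reached: highest tested concentration assigned. GI50: concentration for 50% inhibition of growth. The concentration for full growth arrest is given as TGI.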
What was measured:
Test in all cases: NCI anticancer screen, dose series, 48 h
[1] = test system: 786-0 renal
[2] = test system: A498 renal
[3] = test system: A549 NSCLC
[4] = test system: ACHN renal
[5] = test system: BT-549 breast
[6] = test system: CAKI-1 renal
[7] = test system: CCRF-CEM leukemia
[8] = test system: COLO 205 colon
[9] = test system: DU-145 prostate
[10] = test system: EKVX NSCLC
[11] = test system: HCC-2998 colon
[12] = test system: HCT-116 colon
[13] = test system: HCT-15 colon
[14] = test system: HL-60(TB) leukemia
[15] = test system: HOP-62 NSCLC
[16] = test system: HOP-92 NSCLC
[17] = test system: HS 578T breast
[18] = test system: HT29 colon
[19] = test system: IGROV1 ovarian
[20] = test system: K-562 leukemia
[21] = test system: KM12 colon
[22] = test system: LOX IMVI melanoma
[23] = test system: M14 melanoma
[24] = test system: MALME-3M melanoma
[25] = test system: MCF7 breast
[26] = test system: MDA-MB-231 breast
[27] = test system: MOLT-4 leukemia
[28] = test system: NCI-H226 lung
[29] = test system: NCI-H23 lung
[30] = test system: NCI-H460 lung
[31] = test system: NCI-H522 lung
[32] = test system: NCI/ADR-RES ovarian
[33] = test system: OVCAR-3 ovarian
[34] = test system: OVCAR-4 ovarian
[35] = test system: OVCAR-5 ovarian
[36] = test system: OVCAR-8 ovarian
[37] = test system: PC-3 prostate
[38] = test system: RPMI-8226 leukemia
[39] = test system: RXF 393 renal
[40] = test system: SF-268 CNS
[41] = test system: SF-295 CNS
[42] = test system: SF-539 CNS
[43] = test system: SK-MEL-2 melanoma
[44] = test system: SK-MEL-5 melanoma
[45] = test system: SK-OV-3 ovarian
[46] = test system: SN12C renal
[47] = test system: SNB-19 CNS
[48] = test system: SNB-75 CNS
[49] = test system: SR leukemia
[50] = test system: SW-620 colon
[51] = test system: T-47D breast
[52] = test system: TK-10 renal
[53] = test system: U251 CNS
[54] = test system: UACC-257 melanoma
[55] = test system: UACC-62 melanoma
[56] = test system: UO-31 renal

C[C@@H](Oc1cc(-n2cnc3ccc(CN4CCN(C)CC4)cc32)sc1C(N)=O)c1ccccc1C(F)(F)F
GI50 [1]: 43.9 nM and 85.4 nM | TGI [1]: 2040 nM and > 7110 nM | GI50 [2]: 61.5 nM and 34.1 nM | TGI [2]: 982 nM and 187 nM | GI50 [3]: 21.1 nM and 30.6 nM | TGI [3]: 10800 nM and > 10000 nM | GI50 [4]: 442 nM and 156 nM | TGI [4]: 15800 nM and > 10000 nM | GI50 [5]: 74.6 nM and 139 nM | TGI [5]: 15200 nM and > 10000 nM | GI50 [6]: 337 nM and 222 nM | TGI [6]: 15100 nM and > 10000 nM | GI50 [7]: < 10 nM and 14.9 nM | TGI [7]: 4240 nM and > 2070 nM | GI50 [8]: < 10 nM and 4.24 nM | TGI [8]: 699 nM | GI50 [9]: < 13.4 nM and 9.75 nM | TGI [9]: 652 nM and 188 nM | TGI [10]: 21600 nM and > 10000 nM | GI50 [11]: < 16.1 nM and 39.7 nM | GI50 [12]: < 12.5 nM and 13.9 nM | TGI [12]: 12900 nM and > 10000 nM | GI50 [13]: 45 nM and 43.2 nM | TGI [13]: 12900 nM and > 10000 nM | GI50 [14]: < 10 nM and 5.95 nM | TGI [14]: < 17.9 nM | GI50 [15]: 11.8 nM and 19.9 nM | TGI [15]: 12700 nM and > 10000 nM | GI50 [16]: 34.2 nM and 191 nM | TGI [16]: 947 nM and > 3140 nM | GI50 [17]: 85.3 nM and 35 nM | TGI [17]: 2530 nM | GI50 [18]: < 10 nM and 4.02 nM | TGI [18]: 6510 nM and > 10000 nM | GI50 [19]: 62.1 nM and 33.6 nM | TGI [19]: 15100 nM and > 10000 nM | GI50 [20]: 3.17 nM | GI50 [21]: < 12 nM and 5.56 nM | TGI [21]: 12700 nM and > 10000 nM | GI50 [22]: < 18 nM and 23.1 nM | TGI [22]: 5500 nM and > 10000 nM | GI50 [23]: 12.3 nM | TGI [23]: 2310 nM | GI50 [24]: 2810 nM and 2770 nM | TGI [24]: 7620 nM and > 6990 nM | GI50 [25]: < 10 nM and 4.78 nM | TGI [25]: 15200 nM and > 10000 nM | TGI [26]: 2650 nM and > 2790 nM | GI50 [27]: < 10.7 nM and 11.2 nM | TGI [27]: 4710 nM and 2760 nM | TGI [28]: 19000 nM and > 10000 nM | GI50 [29]: < 11.4 nM and 14.5 nM | TGI [29]: 13200 nM and > 10000 nM | GI50 [30]: < 15.7 nM and 22.4 nM | TGI [30]: 12500 nM and > 10000 nM | GI50 [31]: < 10 nM and 5.31 nM | TGI [31]: 36.9 nM | GI50 [32]: 162 nM and 200 nM | TGI [32]: 14300 nM and > 10000 nM | GI50 [33]: < 15.2 nM and 5.28 nM | TGI [33]: 16700 nM and > 10000 nM | GI50 [34]: 817 nM and 980 nM | TGI [34]: 17500 nM and > 10000 nM | GI50 [35]: < 17.5 nM and 26.4 nM | TGI [35]: 16600 nM and > 10000 nM | GI50 [36]: < 15.3 nM and 14.6 nM | TGI [36]: 13600 nM and > 10000 nM | GI50 [37]: < 19.2 nM and 29.3 nM | TGI [37]: 15500 nM and > 10000 nM | GI50 [38]: 54.6 nM and 38.4 nM | TGI [38]: 13600 nM and > 10000 nM | GI50 [39]: < 14.1 nM and 22.4 nM | TGI [39]: 10200 nM and > 10000 nM | GI50 [40]: 29.3 nM and 66.7 nM | TGI [40]: 16300 nM and > 10000 nM | GI50 [41]: 48.6 nM | TGI [41]: > 10000 nM | GI50 [42]: 36.9 nM and 30.2 nM | TGI [42]: 2090 nM | TGI [43]: > 10000 nM | GI50 [44]: 21.8 nM and 97.6 nM | TGI [44]: 1510 nM and > 10000 nM | GI50 [45]: 25 nM and 67.3 nM | TGI [45]: 1670 nM and > 10000 nM | GI50 [46]: 116 nM and 200 nM | TGI [46]: 12100 nM and > 10000 nM | GI50 [47]: 23.3 nM and 16.2 nM | TGI [47]: 15400 nM and > 10000 nM | GI50 [48]: 36.3 nM and 24.9 nM | GI50 [49]: < 10 nM and 5.14 nM | TGI [49]: 1750 nM and 1440 nM | GI50 [50]: < 10 nM and 4.62 nM | TGI [50]: 12900 nM and > 10000 nM | GI50 [51]: 3350 nM | TGI [51]: 21400 nM and > 10000 nM | GI50 [52]: 2690 nM and 1460 nM | TGI [52]: 17300 nM and > 10000 nM | GI50 [53]: < 13.7 nM and 25.5 nM | TGI [53]: 15600 nM and > 10000 nM | GI50 [54]: 2030 nM | TGI [54]: > 10000 nM | GI50 [55]: 32.6 nM and 38.2 nM | TGI [55]: 16700 nM and > 10000 nM | GI50 [56]: 1670 nM and 776 nM | TGI [56]: 16600 nM and > 10000 nM

Reference: PubChem BioAssay (NCI)
